# According to article PMC3458012, “Gliadin Peptides Induce Tissue Transglutaminase Activation and ER-Stress through Ca^2+ Mobilization in Caco-2 Cells” (PLoS ONE, 2012):
# Ends that are not written are not given here.
# Assays:
# Caco-2 cells = assay type: cell-based
# Protocol: Intracellular Ca^2+ concentration ([Ca^2+]i) was measured in Caco-2 cells by single cell computer-assisted videoimaging using the Ca^2+ indicator Fura-2 acetoxymethyl ester, as previously described, [22]. Gliadin peptides were loaded at concentrations between 0.2 and 20 µg/ml for 30 min at 37°C in normal Krebs solution containing the following (in mM): 5.5 KCl, 160 NaCl, 1.2 MgCl2, 1.5 CaCl2, 10 glucose, and 10 Hepes-NaOH, pH 7.4. To selectively deplete intracellular Ca^2+ stores, experiments were performed in the presence of thapsigargin (THP) (1 µM), an irreversible and selective inhibitor of the sarco(endo)plasmic reticulum Ca^2+ ATPase, and in the presence of the mitochondrial uncoupler carbonylcyanide-p-trifluoromethoxyphenylhydrazone (FCCP) (300 nm).
# intracellular tTG [1] = test: In situ tTG transamidating activity, pentylamine-biotin incorporation, microscopy; assay type: cell-based; conditions: Caco-2 cells; for In situ tTG crosslinking activity (fluorescence of pentylamine-biotin incorporation): 30 min, complete medium, peptides 20 µg/ml, ionomycin 10 µM, THP 1 µM, 0.5 mM pentylamine-biotin
# Protocol: (§1) In situ tTG activity was visualized by using the tTG substrate pentylamine-biotin (Euroclone, Milan, Italy) as reported elsewhere. Caco-2 cells were treated for 30 min with 10 µM ionomycin (Sigma-Aldrich, Milan, Italy), or with different amounts of gliadin peptides, or with 1 µM THP, in the presence of 0.5 mM pentylamine-biotin, before being processed for microscopy observation. To visualize biotin-labeled p31–43 and p57–68 in the cells, peptides needed to be used at a concentration of 0.2 mM. […] Pentylamine-biotin was also used to quantify the tTG transamidating activity by a microplate assay. Briefly, after 30 min of treatment with 20 µg/ml gliadin peptides, or with 1 µM THP, cells were lysed and proteins (25 µg) were coated into the wells of a 96-well plate. The wells were blocked with 10% bovine serum albumin then incubated with 1∶5000 peroxidase-conjugated streptavidin (Euroclone) in 5% bovine serum albumin. To reveal peroxidase activity, 3,3′,5,5′-tetramethylbenzidine (Sigma-Aldrich, Milan, Italy) was added to each well and, after stopping the reaction with H2SO4, absorbances were read at 450 nm.
# GRP78 [2] = test: GRP78 protein level by western blot; assay type: cell-based; conditions: Caco-2 cells, 24 h, THP 1 µM, normalized to tubulin
# Protocol: (§2) Cells were washed with phosphate-buffered saline solution and mechanically harvested in lysis buffer, consisting of 20 mM Tris-HCl, pH 7.5, 150 mM NaCl, 1 mM EDTA, 1 mM dithiotreitol, 0.1% sodium dodecyl sulphate, 1% triton X-100, 1 mM ortovanadate, and inhibitors cocktail (Sigma-Aldrich). After 30 min of incubation on ice, cell extracts were centrifuged at 12,000 g for 30 min at 4°C, to remove cell debris, then 75 µg of total proteins were separated by 10% sodium dodecyl sulphate-polyacrylamide gel electrophoresis and transferred to a membrane. To detect tTG, the blot was treated as described elsewhere. To detect GRP78 and CHOP, the blots were treated with 5% skim milk in phosphate-buffered saline overnight at 4°C, then incubated for 2 h with an anti-GRP78 rabbit polyclonal antibody (H-129) (1∶500; Santa Cruz, CA, USA), or with an anti-CHOP mouse monoclonal antibody (1∶1,500; Santa Cruz), respectively, in phosphate-buffered saline containing 0.1% tween-20. After washing, the blots were incubated for 1 h at room temperature with an anti-rabbit-peroxidase secondary antibody (1∶10,000; Bio-Rad Laboratories), or with an anti-mouse-peroxidase secondary antibody (1∶10,000; Bio-Rad Laboratories), respectively.
# intracellular tTG [3] = test: Microplate assay of tTG transamidating activity on cell lysates; assay type: cell-based; conditions: Caco-2 cells
# Protocol: as §1
# CHOP [4] = test: CHOP protein level by western blot; assay type: cell-based; conditions: Caco-2 cells, 24 h, peptides 20 µg/ml, THP 1 µM, normalized to tubulin
# Protocol: as §2
# GRP78 [5] = test: GRP78 mRNA by real-time RT-PCR; assay type: cell-based, human; conditions: Caco-2 cells, 24 h, peptides 20 µg/ml, THP 1 µM, normalized to GAPDH
# CHOP [6] = test: CHOP mRNA by real-time RT-PCR; assay type: cell-based, human; conditions: Caco-2 cells, 24 h, peptides 20 µg/ml, THP 1 µM, normalized to GAPDH
compound,measurement,setting,value
QLQPFPQPQLPY [p57–68],EC50 of [Ca2+]i increase,Caco-2 cells,0.9 mg/L
"PLIRPLLARPAK [pHTP, irrelevant control peptide, 537–548 region of the human thyroid peroxidase]",In situ tTG crosslinking activity (fluorescence of pentylamine-biotin incorporation),intracellular tTG [1],fluorescence intensity did not increase
"C/C=C(/C)C(=O)O[C@H]1C(C)=C2[C@H]([C@@H]1OC(=O)CCCCCCC)[C@@](C)(OC(C)=O)C[C@H](OC(=O)CCC)[C@@]1(O)[C@H]2OC(=O)[C@@]1(C)O [THP, thapsigargin]",Increase of GRP78 protein expression,GRP78 [2],about five-fold
same,Increase of tTG activity versus cells exposed to pentylamine-biotin alone,"intracellular tTG [3]; 30 min, peptides 20 µg/ml or THP 1 µM, 25 µg lysate, absorbance 450 nm, at least 3 experiments in triplicate",similar
same,In situ tTG crosslinking activity (fluorescence of pentylamine-biotin incorporation),intracellular tTG [1],sufficient to activate intracellular tTG
same,In situ tTG activation in Ca2+-free medium,intracellular tTG [1]; phosphate-buffered saline without Ca2+ and Mg2+,sufficient to activate intracellular tTG
same,Increase of CHOP protein expression,CHOP [4],three-fold
same,Increase of GRP78 mRNA expression with respect to untreated cells,GRP78 [5],about 30 fold
same,Increase of CHOP mRNA expression,CHOP [6],about 14 fold
"QQPQDAVQPF [pCTR, irrelevant control peptide … from durum wheat]",In situ tTG crosslinking activity (fluorescence of pentylamine-biotin incorporation),intracellular tTG [1],fluorescence intensity did not increase
same,[Ca2+]i increase with respect to the basal value,"Caco-2 cells; Caco-2 cells, 20 µg/ml, normal Krebs solution",did not affect
LGQQQPFPPQQPY [p31–43],EC50 of [Ca2+]i increase,Caco-2 cells,0.2 mg/L
LPQFEEIRNLALQTLPAM [p229–246],In situ tTG crosslinking activity (fluorescence of pentylamine-biotin incorporation),intracellular tTG [1],fluorescence intensity did not increase
NCCSSCCN [cystamin],Effect of cystamin pretreatment on tTG activity induced by ionomycin or p31–43,"intracellular tTG [3]; microplate assay, three experiments in triplicate",significant reduction of tTG activity
same,Inhibition of in situ tTG activation induced by ionomycin and p31–43,intracellular tTG [1]; cystamin 200 µM added 5 min before treatment,inhibited the tTG activation
